According to patent US20220089592A1, “IMIDAZO[1,2-A]PYRIDINYL DERIVATIVES AS IRAK4 INHIBITORS” (priority 2019, published 2022):

How the values were obtained:
IRAK4 [1] = biological target: T1, IRAK4 (Homo sapiens, UniProt Q9NWZ3); assay: 2-hour 10 μM ATP Biochemical Assay (MesoScale Detection format; IRAK4 phosphorylation of biotin labeled IRAK1 activation loop peptide); conditions: IRAK4 MSD BIOCHEMICAL (10 μM ATP) IC50 (μM), 1 nM IRAK4, 2 hours
T1 sequence (Q9NWZ3 1-460): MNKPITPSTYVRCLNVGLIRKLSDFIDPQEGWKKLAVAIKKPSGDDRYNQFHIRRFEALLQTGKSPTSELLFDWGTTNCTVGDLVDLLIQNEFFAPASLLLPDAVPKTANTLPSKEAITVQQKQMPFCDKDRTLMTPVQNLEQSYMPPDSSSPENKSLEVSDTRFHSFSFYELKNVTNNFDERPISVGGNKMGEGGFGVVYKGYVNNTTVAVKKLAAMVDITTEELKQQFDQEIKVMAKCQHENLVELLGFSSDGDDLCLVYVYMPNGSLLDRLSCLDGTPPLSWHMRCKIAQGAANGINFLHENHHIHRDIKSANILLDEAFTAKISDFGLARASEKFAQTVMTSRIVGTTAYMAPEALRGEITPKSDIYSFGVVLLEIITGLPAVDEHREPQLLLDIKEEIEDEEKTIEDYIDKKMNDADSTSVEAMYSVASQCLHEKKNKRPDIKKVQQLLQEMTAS
Outline: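 Kinase reaction run 2 h at 10 μM ATP with biotinylated IRAK1 activation-loop peptide, quenched with EDTA. Phospho-peptide captured on streptavidin MSD plates and detected with anti-phosphothreonine rabbit antibody plus Sulfo-Tag anti-rabbit electrochemiluminescence.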

IRAK4 [2] = biological target: T1, IRAK4; assay: 2-hour 1 mM ATP IRAK4 Biochemical assay (as above, but with 100 pM IRAK4 and 1 mM ATP); conditions: IRAK4 MSD BIOCHEMICAL (1 mM ATP) IC50 (μM), 100 pM IRAK4, 2 hours
Outline: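 Run with 100 pM IRAK4 and 1 mM ATP for 2 hours, quenched with EDTA pH 8. Phosphorylated biotinylated peptide captured on streptavidin MSD plates and detected with anti-phosphothreonine antibody plus Sulfo-Tag secondary by electrochemiluminescence.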

Which IC50 (IRAK4 [1]) does the source give for `COc1cc(NC(=O)c2cccc(C(F)F)n2)cn2cc(C3CCOCC3)nc12` [Example 304, 6-(difluoromethyl)-N-(8-methoxy-2-(tetrahydro-2H-pyran-4-yl)imidazo[1,2-a]pyridin-6-yl)picolinamide] here?
Its IC50 is 0.006 µM.

What about the IC50 (IRAK4 [2]) of the same compound?
Its IC50 is 0.013 µM.

Which IC50 (IRAK4 [1]) does the source give for `CCOc1cc2nc(C(C)C3CCOC3)cn2cc1NC(=O)c1cccc(C(F)(F)F)n1` (mixture of isomers) [Example 137, N-(7-ethoxy-2-(1-(tetrahydrofuran-3-yl)ethyl)imidazo[1,2-a]pyridin-6-yl)-6-(trifluoromethyl)picolinamide] here?
Its IC50 is 0.001 µM.

What about the IC50 (IRAK4 [2]) of the same compound?
Its IC50 is 0.001 µM.

Which IC50 (IRAK4 [1]) does the source give for `CCOc1cc2nc(CC3CCOC3)cn2cc1NC(=O)c1coc(C)n1` (centres unmarked) [Example 159, N-(7-ethoxy-2-((tetrahydrofuran-3-yl)methyl)imidazo[1,2-a]pyridin-6-yl)-2-methyloxazole-4-carboxamide] here?
Its IC50 is 0.006 µM.

And the IC50 (IRAK4 [2])?
Its IC50 is 0.051 µM.

`CCOc1cc2nc(C(O)C3CC3)cn2cc1NC(=O)c1cccc(C(F)(F)F)n1` (centres unmarked) [Example 168, N-(2-(cyclopropyl(hydroxy)methyl)-7-ethoxyimidazo[1,2-a]pyridin-6-yl)-6-(trifluoromethyl)picolinamide] was tested. Which IC50 (IRAK4 [1]) did it give?
Its IC50 is 0.007 µM.

What about the IC50 (IRAK4 [2]) of the same compound?
Its IC50 is 0.015 µM.

Which IC50 (IRAK4 [1]) does the source give for `CCOc1cc2nc(C3CCOCC3)cn2cc1NC(=O)c1ccn(C2CCCC2)n1` [Example 208, 1-cyclopentyl-N-(7-ethoxy-2-(tetrahydro-2H-pyran-4-yl)imidazo[1,2-a]pyridin-6-yl)-1H-pyrazole-3-carboxamide] here?
Its IC50 is 0.002 µM.

What about the IC50 (IRAK4 [2]) of the same compound?
The IC50 was 0.008 µM.

Which results are given for `CCOc1cc2nc(C3CCN(C)C3=O)cn2cc1NC(=O)c1cccc(C(F)F)n1` (centres unmarked) [Example 156, 6-(difluoromethyl)-N-(7-ethoxy-2-(1-methyl-2-oxopyrrolidin-3-yl)imidazo[1,2-a]pyridin-6-yl)picolinamide]?
IC50 (IRAK4 [1]): 0.001 µM; IC50 (IRAK4 [2]): 0.003 µM

Which IC50 (IRAK4 [1]) does the source give for `CCOc1cc2nc(CCC(C)(C)O)cn2cc1NC(=O)c1cccc(C(F)F)n1` [Example 27, 6-(difluoromethyl)-N-(7-ethoxy-2-(3-hydroxy-3-methylbutyl)imidazo[1,2-a]pyridin-6-yl)picolinamide] here?
Its IC50 is 0.001 µM.

And the IC50 (IRAK4 [2])?
Its IC50 is 0.001 µM.

How did the IC50 (IRAK4 [1]) turn out when `CCOc1cc2nc(C(C)(C)O)cn2cc1NC(=O)c1cccc(C(F)F)n1` [Example 100, 6-(difluoromethyl)-N-(7-ethoxy-2-(2-hydroxypropan-2-yl)imidazo[1,2-a]pyridin-6-yl)picolinamide] was run?
Its IC50 is 0.008 µM.

What about the IC50 (IRAK4 [2]) of the same compound?
Its IC50 is 0.011 µM.

What does the source list for `CCOc1cc2nc(C3CCOCC3)cn2cc1NC(=O)c1csc(C2CC2)n1` [Example 203, 2-cyclopropyl-N-(7-ethoxy-2-(tetrahydro-2H-pyran-4-yl)imidazo[1,2-a]pyridin-6-yl)thiazole-4-carboxamide]?
IC50 (IRAK4 [1]): 0.001 µM; IC50 (IRAK4 [2]): 0.001 µM

Which results are given for `CCOc1cc2nc(C34CC(C(F)F)(C3)C4)cn2cc1NC(=O)c1cccc(C(F)(F)F)n1` [Example 522, N-(2-(3-(difluoromethyl)bicyclo[1.1.1]pentan-1-yl)-7-ethoxyimidazo[1,2-a]pyridin-6-yl)-6-(trifluoromethyl)picolinamide 2,2,2-trifluoroacetate]?
IC50 (IRAK4 [1]): 0.001 µM; IC50 (IRAK4 [2]): 0.002 µM

Which IC50 (IRAK4 [1]) does the source give for `CC1(COc2cc3nc(C[C@@H]4CCOC4)cn3cc2NC(=O)c2cccc(C(F)(F)F)n2)COC1` (single isomer, unassigned) [Example 164] here?
Its IC50 is 0.003 µM.

And the IC50 (IRAK4 [2])?
Its IC50 is 0.005 µM.

Which results are given for `CC1(C)CCC(Oc2cc3nc(C4CCOCC4)cn3cc2NC(=O)c2cccc(C(F)F)n2)C1` (centres unmarked) [Example 180, 6-(difluoromethyl)-N-(7-((3,3-dimethylcyclopentyl)oxy)-2-(tetrahydro-2H-pyran-4-yl)imidazo[1,2-a]pyridin-6-yl)picolinamide]?
IC50 (IRAK4 [1]): 0.001 µM; IC50 (IRAK4 [2]): 0.001 µM

For `O=C(Nc1cn2cc(C3CC3)nc2cc1OCc1ccccc1)c1cccc(C(F)F)n1` [Example 9, N-(7-(benzyloxy)-2-cyclopropylimidazo[1,2-a]pyridin-6-yl)-6-(difluoromethyl)picolinamide], which IC50 (IRAK4 [1]) is on record?
The IC50 was 0.005 µM.

What about the IC50 (IRAK4 [2]) of the same compound?
The IC50 was 0.01 µM.
